{"source": "patent US7678833B2", "about": "(Allium Vitalis Incorporated, priority 2006, dated 2010)", "key": {"[1]": {"assay": "plasma albumin level as measure of plasma thiol/disulfide redox (applicant)", "format": "in vivo, human", "from_the_text": "Subsequently, an alternative, simpler assay procedure for the thiol/disulfide ratio was found in the literature. Other researchers had determined that the level of plasma albumin correlates linearly with the thiol/disulfide redox (BLOOD92:59, in which paper this redox relationship is expressed by the cystine/thiol ratio).\nThis method of determination of the plasma redox is of great interest to the applicant because the albumin concentration is one of the standard measurements performed in medical lab reports. This meant that historical data was available that could show the age-related decline in albumin level and confirm its reversal with the administration of dietary supplement capsules containing protein bound allyl mercaptan. It could also be used to confirm that the effect was reversible (by discontinuing the administration of the capsules) and repeatable (by the resumption of the administration of the capsules).\nThe historical albumin levels for the applicant are as follows:\nOver the next 3 months, an experiment was performed to determine whether this effect was reversible, and then to see if the effect was repeatable:\nThe age related initial decline of approximately −0.05 per year is also shown extended by a dotted trend line. The presumed departure from the trend that occurred when the supplement use was started is indicated by the first solid line segment."}, "[2]": {"system": "red blood cells (RBCs)", "assay": "SAMC incubated with red blood cells: formation and localization of AllylSH and DADS", "format": "cell-based", "conditions": "for extracellular AllylSH concentration: RBCs with 0.5 mM SAMC", "method": "For these experiments, 0.25 ml of packed RBCs were suspended in 1.75 ml of phosphate buffer solution (PBS) along with an initial concentration 0.5 mM of SAMC.\nThe experimental results are graphed in FIG. 3.\nThe significant effect of glucose is due in part to the energy requirement for the reduction of GSSG to GSH by glutathione reductase, and the need for this “reductive power” to increase the concentration of thiols relative to the concentration of disulfides."}, "[3]": {"conditions": "n-octanol/water; cited from earlier work"}, "[4]": {"conditions": "in vivo; cited from earlier work"}, "[5]": {"conditions": "HIV patients, 7 months, 600 mg/day to 3600 mg/day; cited from earlier work"}, "[6]": {"conditions": "8 weeks, 8000 mg/day; cited from earlier work"}, "[7]": {"system": "cells", "conditions": "cited from earlier work"}, "[8]": {"conditions": "first hour after consumption; cited from earlier work"}, "[9]": {"system": "mucosal cell", "conditions": "within 3 hours; cited from earlier work"}, "[10]": {"system": "trypsin enzyme inhibitor", "conditions": "soy flour, cysteine 2% by weight, 65 degrees C. for 1 hour; cited from earlier work"}, "[11]": {"system": "acetaminophen", "conditions": "mice, cited from earlier work"}, "[12]": {"system": "heapatocytes", "conditions": "hepatocytes exposed to acetaminophen, among 8 cysteine prodrugs tested; cited from earlier work"}, "[13]": {"conditions": "cited from earlier work"}}, "note": "“Also recorded” adds a separate entry of the source. Where two headings read alike, the source gives them in different places.", "data": [{"molecule": "C=CCS", "note": "[AllylSH, AllylThiol]", "values": [{"measurement": "albumin level", "setting": "[1]; 180 mg AllylSH each day", "value": 5.1, "unit": "g/dL"}, {"measurement": "albumin level", "setting": "[1]; +1 mo., AllylSH consumption discontinued", "value": 4.9, "unit": "g/dL"}, {"measurement": "albumin level", "setting": "[1]; donor one, ~20 mg AllylSH each day", "value": 5.0, "unit": "g/dL"}, {"measurement": "albumin level", "setting": "[1]; donor two, ~20 mg AllylSH each day", "value": 5.0, "unit": "g/dL"}, {"measurement": "albumin level", "setting": "[1]; second +1 mo., AllylSH consumption still discontinued", "value": 4.5, "unit": "g/dL"}, {"measurement": "albumin level", "setting": "[1]; third +1 mo., consumption resumed at 180 mg AllylSH/day", "value": 4.7, "unit": "g/dL"}, {"measurement": "albumin level", "setting": "[1]; ~5 mg AllylSH/day", "value": 4.6, "unit": "g/dL"}, {"measurement": "membrane permeability", "setting": "[2]", "value": "membrane permeable"}, {"measurement": "extracellular AllylSH concentration", "setting": "[2]; fed glucose", "value": "continued to rise significantly"}, {"measurement": "extracellular AllylSH concentration", "setting": "[2]; glucose starved", "value": "no increase in AllylSH after the initial rise"}]}, {"molecule": "C=CCSSCC=C", "note": "[DADS, Diallyl Disulfide]", "values": [{"measurement": "partition coefficient", "setting": "[3]", "value": 25}]}, {"molecule": "CC(=O)N[C@@H](CS)C(=O)O", "note": "[NAC, N-acetylcysteine]", "values": [{"measurement": "toxicity", "setting": "[4]", "value": "relatively non-toxic"}, {"measurement": "plasma albumin increase", "setting": "[5]", "value": "approximately 5%"}, {"measurement": "toxicity", "setting": "[6]", "value": "no reported toxicity"}, {"measurement": "whole blood glutathione increase", "setting": "[6]", "value": "approximately 10%"}]}, {"molecule": "O=C1N[C@H](C(=O)O)CS1", "note": "[OTZ, L-2-Oxo-thiazolidine]", "values": [{"measurement": "toxicity", "setting": "[4]", "value": "relatively non-toxic"}]}, {"molecule": "C=CCSSC[C@H](N)C(=O)O", "note": "[SAMC, S-AllylMercaptoCysteine]", "values": [{"measurement": "intracellular formation of AllylSH", "setting": "[2]; RBCs, 0.5 mM SAMC, 10 and 30 minutes, with glucose (10 mM) vs without glucose", "value": "significantly higher"}, {"measurement": "total glutathione level of cells", "setting": "[7]", "value": "significantly increase; also recorded: significant increases"}]}, {"molecule": "Cc1c(C)c2c(c(C)c1O)CC[C@@](C)(CCC[C@H](C)CCC[C@H](C)CCCC(C)C)O2", "note": "[alpha-tocopherol, reference compound]", "values": [{"measurement": "partition coefficient", "setting": "[3]", "value": 550}]}, {"molecule": "[AsH3]", "note": "[arsenic]", "values": [{"measurement": "excreted directly from the liver to the bile", "setting": "[8]", "value": "~40", "unit": "%"}, {"measurement": "glutathione concentration in the mucosal cell", "setting": "[9]", "value": "twice the normal concentration"}]}, {"molecule": "N[C@@H](CS)C(=O)O", "note": "[cysteine, Cysteine]", "values": [{"measurement": "deactivation of trypsin enzyme inhibitor", "setting": "[10]", "value": "over 90%"}]}, {"molecule": "D-glucose-L-cysteine [DGC]", "values": [{"measurement": "hepatic injury from acetaminophen administration", "setting": "[11]; administered 4 hours previously", "value": "significantly reduced"}, {"measurement": "hepatic injury from acetaminophen administration", "setting": "[11]; administered simultaneously", "value": "not effective"}, {"measurement": "raising the GSH level", "setting": "[12]", "value": "most effective"}]}, {"molecule": "sodium arsenate", "values": [{"measurement": "liver glutathione level", "setting": "[13]; protein deficient (6%) rats, control 74", "value": 134, "unit": "micrograms per gram"}, {"measurement": "liver glutathione level", "setting": "[13]; well fed rats (18% protein in the diet), control 88", "value": 123, "unit": "micrograms per gram"}]}]}
